Data from ChEMBL document CHEMBL1155608, “Malyngamides O and P from the sea hare Stylocheilus longicauda” (J Nat Prod, 2000).

Experiments:
Assay type in all cases: functional, cell-based
[1] = system: P388; assay: Cytotoxicity against mouse P388 cells
[2] = system: A549; assay: Cytotoxicity against human A549 cells
[3] = system: HT-29; assay: Cytotoxicity against human HT29 cells

Measured: IC50

CCCCCCC[C@@H](C/C=C/CCC(=O)N(C)C/C(=C\Cl)C/C(=C\C(=O)OC)OC)OC [MALYNGAMIDE O]
2 µg/mL: [1] | [2] | [3]
